Laboratory results taken from patent US9505771B2, “Stable micronised monoclin form of asenapine maleate and its synthesis” (Laboratories Lesvi S.L., priority 2011, dated 2016).
Where a name gives a salt, the structure may show the parent alone.

What was measured:
[1] = PXRD determination of orthorhombic form content in the micronised product; type: physicochemical; settings: for orthorhombic form contained in the micronised product, as determined by PXRD / polymorphic purity (monoclinic form) of the micronised product: after micronisation; for % of orthorhombic form in the micronised product: directly after micronisation, before storage
Experimental: (§1) Powder X-Ray Diffraction (PXRD) patterns were acquired on a D8 Advance Series 2Theta/Theta powder diffraction system using CuKα-radiation in transmission geometry. The system was equipped with a VANTEC-1 single photon counting PSD, a Germanium monochromator, a ninety positions auto changer sample stage, fixed divergence slits and radial soller. Programs used: Data collection with DIFFRAC plus XRD Commander V.2.5.1 and evaluation with EVA V.12.0. The samples were prepared and placed in standard sample holders using two foils of polyacetate. Five hours scans in a range from 8° to 20° in 2θ were carried out.

[2] = Stability assays of the micronised samples (polymorphic stability on storage, PXRD); type: physicochemical; settings: transparent and opaque vacuum containers; for % of orthorhombic form after 1 months / % of orthorhombic form after 3 months: 40° C.-75% RH; for % of orthorhombic form after 2 months: 25° C.-60% RH
Experimental: During the storage period of 1 month, 2 months or 3 months, a temperature of 25° C. and a relative humidity of 60%, or a temperature of 40° C. and a relative humidity of 75%, may be used. For such tests, the samples may be placed into either or both of transparent and opaque vacuum containers. […] The monoclinic and orthorhombic forms of asenapine maleate were characterised, and thus distinguished, by the powder X-ray diffraction pattern (PXRD) of the asenapine maleate, as described in EP 1710245.
as §1
Stability assays of the new stable monoclinic form of asenapine maleate obtained as described above were performed after 1 month, 2 months and 3 months. The samples were placed into two different types of containers, transparent and opaque vacuum containers. The stability tests were carried out at two different storage conditions, 25° C. and 60% relative humidity (RH), and at 40° C. and 75% RH.

orthorhombic form contained in the micronised product, as determined by PXRD [1] | % of orthorhombic form in the micronised product [1] | % of orthorhombic form after 1 months [2] | % of orthorhombic form after 3 months [2] | % of orthorhombic form after 2 months [2] | polymorphic purity (monoclinic form) of the micronised product [1] | Structure (SMILES)
about 5 % by weight | 5% | 9% | 13% |  |  | CN1C[C@@H]2c3ccccc3Oc3ccc(Cl)cc3[C@H]2C1 (racemic) [Example 2, asenapine maleate]
 | <1% | 8% | 12% | 5% |  | CN1C[C@@H]2c3ccccc3Oc3ccc(Cl)cc3[C@H]2C1 (racemic) [Example 2.1, asenapine maleate]
about 3 % by weight | 3% | 5% | 8% |  |  | CN1C[C@@H]2c3ccccc3Oc3ccc(Cl)cc3[C@H]2C1 (racemic) [Example 3, asenapine maleate]
 | <1% | 4% | 7% | 3% |  | CN1C[C@@H]2c3ccccc3Oc3ccc(Cl)cc3[C@H]2C1 (racemic) [Example 3.1, asenapine maleate]
less than 1 % by weight | <1% |  |  |  | > 99 % by weight | CN1C[C@@H]2c3ccccc3Oc3ccc(Cl)cc3[C@H]2C1 (racemic) [Example 4, asenapine maleate]
less than 1 % by weight | <1% |  |  |  | > 99 % by weight | CN1C[C@@H]2c3ccccc3Oc3ccc(Cl)cc3[C@H]2C1 (racemic) [Example 5, asenapine maleate]
less than 1 % by weight |  |  |  |  | > 99 % by weight | CN1C[C@@H]2c3ccccc3Oc3ccc(Cl)cc3[C@H]2C1 (racemic) [Example 6, asenapine maleate]
